From ChEMBL document CHEMBL1157539, “Thousands of chemical starting points for antimalarial lead identification” (Nature, 2010)
Values joined by “and” are separate entries in the source; they are usually repeats but may differ in a detail not shown here. Equal entries are not always repeated.

system: Plasmodium falciparum; assay: GSK_TCMDC: Inhibition of Plasmodium falciparum 3D7 in whole erythrocytes, using parasite LDH activity as an index of growth.; type: functional, organism-based; conditions: not given

Structure (SMILES)	XC50
O=C(CCc1ccc(Cl)cc1Cl)NC1CCC(CN2CCC(c3c[nH]c4ccccc34)CC2)CC1 (stereo not drawn)	0.216 µM and 0.903 µM

same assay, conditions: Plasmodium falciparum, 3D7

Structure (SMILES)	XC50 [µM]
O=C(Nc1ccc2c(c1)CN(Cc1ccc(N3CCCC3)o1)CCC2)c1ccoc1	0.953
COCCNCc1cccc(-c2ccc(CN(C(=O)Nc3ccccc3)C3CCN(Cc4ccccc4)CC3)cc2)c1	0.773
Cc1cc(N[C@@H](Cc2ccccc2)C(=O)NCCc2ccccc2)nc(NCCc2cccs2)n1	0.713
COc1cc2nc(NCC3CCCCC3)nc(NCc3ccccc3)c2cc1OC	0.142
O=C(Nc1ccc(N2CCNCC2)nc1)c1oc(-c2ccccc2)nc1C(F)(F)F	0.981
COc1ccc(Cc2cnc3nc(N)nc(N)c3c2C)cc1	0.0291
O=C(Nc1cccc(-c2nc3ccccc3s2)c1)c1ccccc1[N+](=O)[O-]	0.767
CC(C)(C)CNCC(C)(C)c1nc(-c2ccc(Cl)c(O)c2)c(-c2ccncc2)[nH]1	0.601
Cn1cc(C2CCN(CCCCNC(=O)c3sc(-c4ccc(C(F)(F)F)cc4)nc3CO)CC2)c2ccccc21	1.06
O=C(/C=C/c1ccc(Cl)c(Cl)c1)NCCCCCN1CCC(NC(=O)Nc2ccc(F)cc2F)CC1	0.739
O=C(Nc1ccc(Cl)cc1F)NC1CCN(CCCCCNC(=O)C2CC2c2ccc(Cl)c(Cl)c2)CC1 (stereo not drawn)	0.51
COc1cccc(CN2CCC(CCOC(c3ccccc3)c3ccccc3)CC2)c1O	0.73
FC(F)(F)c1ccc2[nH]c(-c3cccc(-c4ccc(CNCC5CCCO5)cc4)c3)nc2c1 (stereo not drawn)	0.277
COc1ccc(OCCCN2CCCCC2)cc1S(=O)(=O)c1ccc(OCc2ccc(C(F)(F)F)cc2)cc1	1.01
Fc1ccccc1CNc1ncc(-c2ccsc2)c(-c2nccs2)n1	0.054
COc1ccccc1CCNc1nc(C)cc(N[C@@H](Cc2ccccc2)C(=O)Nc2ccccc2)n1	1.02
Cc1cccc(C(=O)NC(NC(=S)Nc2ccc([N+](=O)[O-])cc2)C(Cl)(Cl)Cl)c1 (stereo not drawn)	0.744
Oc1ccccc1CNC1CCCCC1NCc1ccccc1O (stereo not drawn)	0.95
Oc1cc(Nc2ccnc3cc(-c4cccc(CN5CCOCC5)c4)ccc23)c(F)cc1Cl	0.207
COc1ccc2c(OC)cccc2c1CNCCCCCCNCc1c(OC)ccc2c(OC)cccc12	0.686
Nc1cc(-c2ccc3c(N)nccc3c2)ccc1Cl	1.54
COc1cc(NCCCNC(=O)c2cc3c(Cl)cc(Cl)cc3[nH]2)nc2ccccc12	0.144
CC(=NNC(N)=O)C1=C(O)C(c2ccccc2)N(C2CCCCC2)C1=O (stereo not drawn)	0.033
Fc1ccc(-c2cncc(-c3ccc(F)cc3)n2)cc1	0.639
CC(C)(C)c1ccc(OCCCON2C(N)=NC(N)=NC2(C)C)cc1	0.0032

Structure (SMILES)	XC50 [µM]
CNCCNCc1ccc(-c2ccc(-c3nc4cccc(C)c4[nH]3)cc2)cc1	0.67
CCCC(C)Nc1nc(C)cc(N[C@@H](Cc2ccccc2)C(=O)NCCc2ccccc2)n1 (stereo partly drawn)	0.954
Cc1cc(O)c(-c2ccc(Sc3ccc(Cl)cc3)cc2)c(C)n1	0.969
O=C(C=Cc1ccc(Cl)c(Cl)c1)NCCCCCN1CCC(CCNC(=O)c2sc3ccccc3c2Cl)CC1	1.01
COc1ccc(CNCc2ccc(F)cc2)cc1-c1ccc(OC)c(S(=O)(=O)NCCN2CCCC2)c1	0.786
Cc1cccc2nc(-c3ccc(-c4cccc(CNCc5cccc(N)c5)c4)s3)[nH]c12	0.517
COc1ccc(NC(=O)Nc2cccc(-c3ccncc3)c2)cc1N1CCN(C)CC1	0.552
COC(=O)CNC(c1ccccc1)c1cc(Br)ccc1NC(=O)c1ccccc1Br (stereo not drawn)	0.988
CCC(CC)(Cc1ccccc1)NC(=O)[C@H](Cc1ccc(OC)c(OC)c1)Nc1ccc(C#N)c2ccccc12	0.866
Cc1cc(NCCCN2CCCC2=O)n2c(nc3ccccc32)c1C#N	0.858
O=C(Nc1ccc(-c2nc3ccccc3[nH]2)cc1)c1ccc(N2CCOCC2)c([N+](=O)[O-])c1	0.794
Cc1cc2nc(-c3ccc(C(=O)NCc4cccc(C(F)(F)F)c4)cc3)[nH]c2cc1C	0.807
Cc1nc(N)nc(N)c1-c1ccc(Br)cc1	0.232
COc1c(C(=O)NC2CCN(Cc3ccccc3)C2)cnc2ccccc12 (stereo not drawn)	0.956
Cc1cc(NCCCCCCCCNc2cc(C)nc3ccccc23)c2ccccc2n1	0.985
O=C(/C=C/c1ccc(Cl)c(Cl)c1)NCCCCCN1CCC(CCNC(=O)Cc2ccc(Cl)cc2)CC1	1.16
Cn1c(NC(=O)C2CCCN(C(=O)c3ccc(O)c(-c4ccc(Cl)c(Cl)c4)c3)C2)nc2ccccc21 (stereo not drawn)	0.751
CCCN(CCC)CC(O)COc1ccccc1C(=O)Nc1ccccc1 (stereo not drawn)	0.799
Cc1cccc2nc(-c3ccc(-c4cccc(NC(=O)Nc5ccsc5)c4)cc3)[nH]c12	0.799
Cn1cc(C(=O)Nc2cccc(-c3cccc(-c4nc5cc(F)ccc5[nH]4)c3)c2)n(C)c1=O	0.388
O=C(Nc1ccc(-c2ccc(-c3nc4ccccc4[nH]3)s2)cc1)Nc1ccc(F)c(F)c1F	0.194
NC(=O)Nc1ccc2c(Nc3ccc(OCc4ccccc4)cc3)ncnc2c1	1.26
NC1(C(=O)O)Cc2ccc(Cl)cc2C1 (stereo not drawn)	0.734
Oc1ccccc1CNCC(O)c1cccc(C(F)(F)F)c1 (stereo not drawn)	0.526
O=C(Nc1cc(C(F)(F)F)cc(C(F)(F)F)c1)Nc1cc(C(F)(F)F)cc(C(F)(F)F)c1	0.727

Structure (SMILES)	XC50 [µM]
CC1Cc2ccccc2N1S(=O)(=O)c1cc(OCC(F)(F)F)ccc1OCC(F)(F)F (stereo not drawn)	0.645
CSc1ccc(CN2CCC(NC(=O)c3ccc(-c4cccc(Cl)c4)s3)CC2)cc1	1.29
CCOc1ccc2nc(C)cc(N/N=C/c3ccccc3[N+](=O)[O-])c2c1	0.0296
Fc1ccc2[nH]c(-c3ccc(-c4ccc(CNCCN5CCNCC5)cc4)s3)nc2c1	0.779
Cc1cccc2nc(-c3cccc(-c4ccc(NC(=O)CCc5c[nH]cn5)cc4)c3)[nH]c12	0.302
N#Cc1cncc(-c2nc3c(N4CCC(N5CCCC5)CC4)cccc3n2CCNCc2ccccc2)c1	0.874
Cc1cccc2nc(-c3ccc(-c4ccc(CN5CCN(C6CCN(C)CC6)CC5)cc4)cc3)[nH]c12	0.1
N=C(N)c1ccc(Oc2ccc(C(=N)N)cc2)cc1	0.317
O=C(NCCc1ccccc1)N(Cc1ccccc1-c1ccc(CNC2CCCC2)cc1)C1CCN(Cc2ccccc2)CC1	1.13
CCOC(=O)C1CCN(CCCNC(=O)/C(=C/C=C/c2cc3cc(Cl)c(Cl)cc3[nH]2)OC)CC1	1.04
COc1cccc(CN2CCCN(Cc3cccc(NC(=O)c4ccc(Cl)c(Cl)c4)c3)CC2)c1	1.46
Cc1nnc2c(NC(=O)NC3CCCC3)cc3ccc(-c4cccc(CN(C)C)c4)cc3n12	1.16
Cc1ccccc1N1CCN(c2ccc(C(=O)Nc3ccccc3)cc2)CC1	0.723
CC(C)C[C@H](NC(=O)c1cc2ccccc2s1)C(=O)N[C@H]1CCN(Cc2ccc(OC3CCN(C)C3)c(Cl)c2)C1 (stereo partly drawn)	0.782
CCC[C@@H]([C@@H](CC1CCCCC1)C(=O)N[C@H](C(=O)Nc1nccs1)C(C)(C)SCCNC(=O)OCc1ccccn1)N(O)C=O	0.162
O=C(O)c1cc(C(F)(F)F)co1	0.825
Cc1cc(C(F)(F)F)n2nc(C(=O)N(C)Cc3cncn3Cc3ccc(F)cc3)cc2n1	0.832
Clc1ccccc1/C=C/c1cncnc1Nc1ccc2[nH]c(Cc3ccccc3)nc2c1	0.915
NC(=O)c1sc(-n2cnc3ccc(OCC4CCNCC4)cc32)cc1OCc1ccccc1C(F)(F)F	0.753
O=C(Cc1n[nH]c(=O)c2ccccc12)Nc1cccc(C(=O)Nc2cccc(C(F)(F)F)c2)c1	0.169
Cc1cccnc1CNc1nccc2c(C)c(C)[nH]c12	0.849
CCN1CCC(N(CCCCCCc2ccc(C(F)(F)F)cc2)C(=O)Cn2c(CCc3cccc(F)c3F)cc(=O)c3ccccc32)CC1	0.927
COc1ccc(CCN(C)CCCN2CCC(NC(=O)c3cccc4c(=O)c5ccccc5sc34)CC2)cc1OC	0.786
O=C(/C=C/c1ccc(Cl)c(Cl)c1)NCCCCCN1CCC(CCNC(=O)/C=C/c2ccccc2F)CC1	0.871
O=C(Nc1ccc(Cl)cc1)Nc1cccc(-c2cccc(-c3nc4cc(F)ccc4[nH]3)c2)c1	0.22

Structure (SMILES)	XC50 [µM]
COc1cccc(O)c1CN1CCC2(CCCN(Cc3ccc(F)cc3)C2)C1 (stereo not drawn)	0.865
O=S(=O)(NCCN1CCCC1)c1ccc(-c2cccc(CNCc3ccc(F)cc3)c2)s1	0.764
Cc1cc(N[C@@H](CC(C)C)C(=O)NCc2cccs2)nc(NCCc2cccs2)n1	1.02
COc1ccccc1/C=C/C(=O)NCCC1CCN(CCCCCNC(=O)/C=C/c2ccc(Cl)c(Cl)c2)CC1	0.807
COc1ccccc1CCNc1nccc(N[C@@H](Cc2ccccc2)C(=O)NCc2cccs2)n1	0.871
CCOC(=O)NC1=NC(C)(C)N(OCCCOc2cc(Cl)c(Cl)cc2Cl)C(NC(=O)OCC)=N1	0.0312
Clc1ccccc1CN1CCC(NCc2cccc(-n3ccnc3)c2)CC1	0.786
Clc1ccc(-c2csc3ncnc(Cl)c23)cc1	0.46
CCOC(=O)CNC(=O)c1cc(=O)c2ccccc2o1	0.21
CN(C)Cc1ccc2nc(-c3cccc(Cc4cc(Cl)ccc4OCc4ccc(Cl)cc4F)n3)[nH]c2c1	1.13
COc1ccc(-n2ccnc2)cc1CNC1CCN(CC2Cn3c(=O)ccc4ccc(F)c2c43)CC1 (stereo not drawn)	0.927
CCc1cn(C)c2c(N3CCCC3=O)cc(C(=O)N[C@@H](Cc3ccccc3)[C@H](O)CNCc3cccc(OC)c3)cc12	0.784
Cc1cc(=NN=Cc2ccccn2)c2cc(F)ccc2[nH]1	0.761
O=C(NCCCCN1CCC(c2ccc3c(c2OCCN2CCCC2)CCCC3)CC1)c1ccc(-c2ccc(C(F)(F)F)cc2)cc1	0.447
CC(C)(C)OC(=O)Cn1cnc2cc(NC(=O)c3cc([N+](=O)[O-])cc([N+](=O)[O-])c3)ccc21	0.312
CCc1nc(N)nc(N)c1-c1ccc(C(C)C)cc1	0.834
S=C(NCC1CCCCC1)NC1CCC(CN2CCC(c3c[nH]c4ccccc34)CC2)CC1 (stereo not drawn)	1.11
CCOC(=O)c1ccc(NC(=O)Nc2cccc(-c3ccc(-c4nc5cc(C(F)(F)F)ccc5[nH]4)cc3)c2)cc1	0.212
CC(C)CNCc1cccc(-c2cccc(CN(C(=O)c3cccs3)C3CCN(Cc4ccccc4)CC3)c2)c1	0.896
CCN(CC)CCCC(C)Nc1ccnc2ccc(OC)cc12 (stereo not drawn)	0.822
Clc1ccc(OCc2ccccc2)c(-c2nc(-c3nc4ccc(Cl)cc4[nH]3)cs2)c1	0.67
O=C(Nc1cccc(-c2cccc(-c3nc4cc(F)ccc4[nH]3)c2)c1)Nc1ccc2c(c1)OCO2	0.137
